Holding throughout (format): in vivo
Test [1] concerns two-spotted mite [Tetranychus urticae (Koch)]. As to the kind of experiment: Two-spotted mite activity. To be noted: initial testing level 0.05% in solution. How it is done: The compounds in Tables 1 and 2 were also tested for activity against the two-spotted mite [Tetranychus urticae (Koch)] and Western spotted cucumber beetle larvae [Diabrotica undecimpunctata undecimpunctata (Mannerheim)]. Initial testing levels were 0.05% (in solution) against the mite, and 25 ppm (in soil) against the beetle.

Test [2] deals with Black Bean Aphid [Aphis fabae (Scop.)]. In words: Black bean aphid spray test on nasturtium (BBA), 48 hours. To be noted: percent of test compound in sprayed solution. Put shortly:
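LC50, given as percent test compound in the sprayed liquid, was calculated from dosage-mortality curves using concentrations from 0.05% downward. Sprays in 50:50 acetone-water went to runoff on ~5 cm nasturtiums carrying 25-50 aphids of mixed ages, one day after infestation. Deaths were counted 48 h later under greenhouse conditions.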

Test [3] concerns Housefly [Musca domestica]. As to the kind of experiment: Housefly contact mortality in dishes (HF), 48 hours. The conditions noted are these: μg of test compound per 25 female flies. Put shortly: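 LC50, as μg compound per 25 female flies, comes from dosage-mortality curves with doses from 100 μg downward. Residues were made by evaporating acetone plus 0.01% peanut oil in dishes, onto which 1-2-day-old females were caged; deaths were counted after 48 hours.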

For test [4], the system named is Cabbage Looper [Trichoplusia ni (Hubner)]. In words: Cabbage looper leaf dip (CL), 3-5 days. To be noted: percent in solution, second-instar larvae. In a few lines:
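Squash cotyledons dipped in test solution (acetone-water 50-50, ≤0.1%), dried, offered to 5 second-instar larvae; mortality after 3-5 days gives LC50.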

For test [5], the system named is Maize weevil [Sitophilus zeamais (Motschulsky)]. In words: Maize weevil on dipped corn seeds (MW), 48 hours. To be noted: percent in solution, adult weevils. In a few lines: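 LC50, given as percent of compound in dipping solution, comes from dosage-mortality curves over concentrations descending from 0.01%. Four corn seeds soaked 2-3 s in 50:50 acetone:water solution were dried and held with 10 adult weevils, about 25° C, mortality read after 48 h.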

In test [6] the test system is Tobacco Budworm [Heliothis virescens (Fabricius)] eggs. In words: Tobacco budworm eggs (TBW-E). The conditions noted are these: percent in solution; 2-day old eggs. Put shortly:
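Step 1: dip 2-day old egg patches in acetone test solutions (top concentration 0.1%). Step 2: hold in dishes with rearing medium at 78° F. Step 3: record mortality after control hatch and feeding.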

Test [7] concerns Beet Armyworm (Spodoptera exigua). In words: Beet armyworm leaf dip (BAW), 5 days. The conditions noted are these: percent in solution; second-instar larvae; five days. Put shortly: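 Five second-instar larvae per dish fed on dried sugar beet leaves previously dipped 2–3 s in acetone-water (1:1) test solutions up to 0.1%. Kept at high humidity, with deaths counted after five days; LC50 as % in solution via dosage-mortality curves.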

Test [8] deals with Rice water weevil [Lissorhoptrus oryzophilus (Kuschel)]. As to the kind of experiment: Rice water weevil topical (RWW), 48 hours. To be noted: μg of test compound per weevil, female adults. In a few lines: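 Female adult weevils (ten per dose) received 1 µl acetone droplets on the ventral abdomen and were held at about 25 °C with wet cotton and rice foliage. Mortality read at 48 h; LC50 from dose-mortality curves, given as µg compound per weevil, top dose 2.5 µg per weevil.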

Test [9] deals with Aster Leafhopper [Macrosteles fascifrens (Stal)]. In words: Aster leafhopper on dipped oat seedlings (LH), 48 hours. The conditions noted are these: percent in solution, adults/nymphs. In a few lines:
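LC50 values, given as percent of test compound in the dip solution, were derived from dosage-mortality curves over concentrations from 0.05% downward. Mortality was counted 48 hours after ten leafhopper adults/nymphs were enclosed on treated seedlings. The seedlings were oats, about 10 cm tall, briefly dipped in 50-50 acetone-water.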

Test [10] relates to Tobacco Budworm [Heliothis virescens (Fabricius)] larvae. As to the kind of experiment: Tobacco budworm larvae, contact (TBW-C), 5 days. The conditions noted are these: percent in solution, second-instar larvae. In a few lines:
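Cotton cotyledons dipped 2–3 s in compound in 50-50 acetone-water, dried, then infested with 5 second-instar larvae and held 5 days at high humidity. Mortality scored; LC50 from dosage-mortality curves, expressed as percent compound in solution, concentrations from 0.1% downward.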

For the compound `CC(C)C(=Nc1ccc(OC(F)(F)C(F)Cl)cc1)OCc1ccc(F)c(Oc2ccccc2)c1` (stereo not drawn) [Compound 419], the “activity in tests against twospotted mite” value in test [1] is recorded as “demonstrated activity”. For the same compound, in test [2], the “LC50 BBA” value is recorded as more than 0.05%. In addition, the “LC50 HF” value in [3] was more than 100 µg. The “LC50 CL” value in [4] is reported as more than 0.1%. In test [5], the “LC50 MW” value is recorded as more than 0.01%. For the same compound, in test [6], the “LC50 TBW E (eggs)” value is listed as more than 0.1%.

In the case of `CC(C)C(=Nc1ccc(OC(F)(F)C(F)Cl)cc1)OCc1cccc(Oc2ccccc2)c1` (stereo not drawn) [Compound 418], the “activity in tests against twospotted mite” value in [1] is on record as “demonstrated activity”. The “LC50 BBA” value in [2] is more than 0.05%. Also, in test [3], the “LC50 HF” value was more than 100 µg. Also, the “LC50 CL” value in test [4] is on record as more than 0.1%. Moreover, the “LC50 MW” value in [5] was more than 0.01%. The “LC50 TBW E (eggs)” value in test [6] was more than 0.1%.

Turning to `CC(C)C(=Nc1ccc(Cl)cc1)OCc1cccc(Oc2ccc(Cl)cc2)c1` [Compound 269], in test [7], the “LC50 BAW” value was found to be 0.0024%. In addition, the “LC50 RWW” value in test [8] is more than 2.5 µg. Besides, the “LC50 BBA” value in test [2] was more than 0.05%. Further, the “LC50 HF” value in [3] is 25 µg. In addition, the “LC50 CL” value in test [4] was 0.0003%. In addition, the “LC50 LH” value in [9] is 0.003%. For the same compound, in test [5], the “LC50 MW” value is on record as more than 0.01%. In [10], the “LC50 TBW C (contact)” value is 0.001%. In addition, in [6], the “LC50 TBW E (eggs)” value was 0.04%.

For `CC(C)C(=Nc1ccc(F)c(Cl)c1)OCc1ccc(F)c(Oc2ccc(F)cc2)c1` [Compound 216], in [7], the “LC50 BAW” value is given as 0.0007%. Moreover, in [8], the “LC50 RWW” value was 0.067 µg. Moreover, the “LC50 BBA” value in test [2] is given as 0.00025%. Besides, the “LC50 HF” value in [3] was 2 µg. For the same compound, in test [4], the “LC50 CL” value worked out at 0.000007%. Further, the “LC50 LH” value in test [9] is on record as 0.00025%. Moreover, the “LC50 MW” value in test [5] is 0.0017%. Besides, in test [10], the “LC50 TBW C (contact)” value is listed as 0.00018%. For the same compound, in test [6], the “LC50 TBW E (eggs)” value came to 0.005%.

As for `CC(C)C(=Nc1ccc(F)c(C(F)(F)F)c1)OCc1ccc(F)c(Oc2ccc(F)cc2)c1` [Compound 277], in [7], the “LC50 BAW” value is 0.005%. Further, in [8], the “LC50 RWW” value was 0.065 µg. The “LC50 BBA” value in test [2] came out at 0.0008%. For the same compound, the “LC50 HF” value in test [3] came to 4 µg. In test [4], the “LC50 CL” value came to 0.00001%. In test [9], the “LC50 LH” value is given as 0.0003%. Also, the “LC50 MW” value in [5] is listed as more than 0.01%. The “LC50 TBW C (contact)” value in test [10] was determined as 0.0005%. In addition, the “LC50 TBW E (eggs)” value in test [6] worked out at 0.013%.

`CC(C)C(=Nc1ccc(F)c(Br)c1)OCc1ccc(F)c(Oc2ccc(F)cc2)c1` [Compound 273]: in test [7], the “LC50 BAW” value is 0.0017%. Also, the “LC50 RWW” value in test [8] was more than 2.5 µg. For the same compound, the “LC50 BBA” value in test [2] was 0.0003%. Moreover, the “LC50 HF” value in test [3] was 7 µg. Further, the “LC50 CL” value in test [4] is 0.000018%. The “LC50 LH” value in [9] stood at 0.0003%. Further, the “LC50 MW” value in [5] was found to be 0.004%. In addition, the “LC50 TBW C (contact)” value in test [10] is listed as 0.00025%. Further, the “LC50 TBW E (eggs)” value in test [6] turned out to be 0.015%.

Take `CC(C)C(=Nc1ccc(OC(F)(F)F)cc1)OCc1ccc(F)c(Oc2ccc(Cl)cc2)c1` [Compound 323]: the “LC50 BAW” value in [7] turned out to be 0.0025%. Moreover, the “LC50 RWW” value in test [8] is 0.16 µg. Besides, the “LC50 BBA” value in test [2] was more than 0.05%. Also, in test [3], the “LC50 HF” value is more than 100 µg. The “LC50 CL” value in test [4] amounted to 0.0006%. For the same compound, the “LC50 LH” value in test [9] came to 0.05%. For the same compound, in test [5], the “LC50 MW” value was 0.0075%. The “LC50 TBW C (contact)” value in test [10] was determined as 0.00065%. Further, in [6], the “LC50 TBW E (eggs)” value is 0.045%.

The values above are taken from patent US5045566A, “Novel imidate insecticides” (ICI Americas Inc., priority 1989, dated 1991).
